Patent US12178838B2, “Synthetic neuromodulatory peptides” (Lactocore, Inc., priority 2019, dated 2024)
Like-named read-outs stand apart in the source and are kept apart here. Residues, ends and D or L forms follow the SMILES beside them.

What was measured:
[1] = set-up: species or system rats; details: rat, in vivo
Protocol: Tritium-labeled peptide FQSE (SEQ ID NO:10) was administered intranasally (i.n.) at a dose of 500 μg/kg diluted in saline. The administered sample contained 2000 pKi of tritium-labeled peptide [^3H] FQSE (SEQ ID NO:10). In 6 minutes after the administration, test samples of brain, blood and urine were obtained.
The study was carried out using tritium-labeled peptide FQSE (SEQ ID NO:10). For that, rats were administered with 2000 pKi [^3H] FQSE (SEQ ID NO:10) in dose 500 μg/kg (about 150 μg). The solutions administered to animals were prepared using saline solution. The volume of the solution for intranasal administration was 20 μl for rats.
In rat experiments, product FQSE (SEQ ID NO:10) was administered as a single, bolus, intranasal injection. Preliminarily, rats were anesthetized with chloral hydrate (300 mg/kg), and in 10 min, product FQSE (SEQ ID NO:10) was administered in volume 20 μl, in dose 500 μg/kg which contained 2000 pKi of labeled peptide [^3H]FQSE (SEQ ID NO:10). Rats were decapitated in 6 minutes after the product administration. […]
The quantitative analysis of peptides was performed with HPLC on column Kromasil C18, 4×150 mm in methanol gradient (0-40%), presence of 0.08% TEA and 0.02% HBA (heptafluorobutyric acid). The fractions containing peptide FQSE (SEQ ID NO:10) were collected, and their radioactivity was determined with liquid scintillation counting.

[2] = tested on: benzodiazepine site of GABAA receptors
Protocol: The incubation mixture (final volume 0.5 ml) contained 50 μl of […]

SMILES: NC(=O)CC[C@H](NC(=O)[C@@H](N)Cc1ccccc1)C(=O)N[C@@H](CO)C(=O)N[C@@H](CCC(=O)O)C(=O)O [FQSE] (H-FQSE-OH)
- blood-brain barrier penetration [1]: can penetrate blood-brain barrier
- Specific binding of [3H]-Flunitrazepam, relative to control levels ([2]; Diazepam 10^−6M + FQSE 10^−4M, 25 min pre-incubation + 30 min incubation, 4° C.): 101.07%
- Specific binding of [3H]-Flunitrazepam, relative to control levels ([2]; Diazepam 10^−6M + FQSE 10^−4M, 25 min pre-incubation + 30 min incubation, 24° C.): 100.58%
- Specific binding of [3H]-Flunitrazepam, relative to control levels ([2]; Diazepam 10^−6M + FQSE 10^−4M, 30 min incubation, 4° C.): 100.27%
- Specific binding of [3H]-Flunitrazepam, relative to control levels ([2]; Diazepam 10^−6M + FQSE 10^−4M, 30 min incubation, 24° C.): 100.95%
- Specific binding of [3H]-Flunitrazepam, relative to control levels ([2]; Diazepam 10^−6M + FQSE 10^−5M, 25 min pre-incubation + 30 min incubation, 4° C.): 101.07%
- Specific binding of [3H]-Flunitrazepam, relative to control levels ([2]; Diazepam 10^−6M + FQSE 10^−5M, 25 min pre-incubation + 30 min incubation, 24° C.): 99.78%
- Specific binding of [3H]-Flunitrazepam, relative to control levels ([2]; Diazepam 10^−6M + FQSE 10^−5M, 30 min incubation, 4° C.): 100.04%
- Specific binding of [3H]-Flunitrazepam, relative to control levels ([2]; Diazepam 10^−6M + FQSE 10^−5M, 30 min incubation, 24° C.): 100.70%
